Measurements: ChEMBL document CHEMBL5352419, “Design, synthesis, and biological evaluation of tetrahydroquinoline amphiphiles as membrane-targeting antimicrobials against pathogenic bacteria and fungi” (Eur J Med Chem, 2022)
≈ marks a conversion by molar mass, not a printed value.

Key:
[1] = tested on: Candida albicans; assay: Antimicrobial activity against Candida albicans ATCC10231 assessed as fungal growth inhibition incubated for 48 hrs by Sabouraud Dextrose broth based dilution assay; assay type: functional
[2] = tested on: Candida albicans; assay: Antimicrobial activity against Candida albicans CMCC98001 assessed as fungal growth inhibition incubated for 48 hrs by Sabouraud Dextrose broth based dilution assay; assay type: functional
[3] = tested on: Staphylococcus aureus; assay: Antimicrobial activity against Staphylococcus aureus ATCC29213 assessed as bacterial growth inhibition incubated for 24 hrs by Muller Hinton broth based dilution assay; assay type: functional
[4] = tested on: Staphylococcus aureus; assay: Antimicrobial activity against methicillin-resistant Staphylococcus aureus N315 assessed as bacterial growth inhibition incubated for 24 hrs by Muller Hinton broth based dilution assay; assay type: functional
[5] = tested on: Staphylococcus aureus; assay: Antimicrobial activity against methicillin-resistant Staphylococcus aureus NCTC10442 assessed as bacterial growth inhibition incubated for 24 hrs by Muller Hinton broth based dilution assay; assay type: functional
[6] = tested on: Escherichia coli; assay: Antimicrobial activity against Escherichia coli ATCC25922 assessed as bacterial growth inhibition incubated for 24 hrs by Muller Hinton broth based dilution assay; assay type: functional
[7] = Hemolytic activity in rabbit RBC incubated for 1 hr by absorbance based microplate reader assay; assay type: toxicity, cell-based, Oryctolagus cuniculus, Erythrocyte; details: rabbit red blood cells (erythrocytes)

Row | Compound | MIC [1] [µg/mL] | MIC [2] [µg/mL] | MIC [3] [µg/mL] | MIC [4] [µg/mL] | MIC [5] [µg/mL] | MIC [6] [µg/mL] | HC50 at 1 h [7] [µg/mL]
1 | CCN(CC)CCCCOc1ccc2c(c1)CCCN2CC=C(C)C | > 50 | > 50 | > 50 | > 50 | > 50 | > 50 | > 200
2 | CCCNCCCCOc1ccc2c(c1)CCCN2CC=C(C)C | > 50 | > 50 | 50 (≈ 151 µM) | 25 (≈ 75.6 µM) | 25 (≈ 75.6 µM) | > 50 | > 200
3 | C[C@@H]1C/C=C/C=C/C=C/C=C/[C@H](O[C@@H]2O[C@H](C)[C@@H](O)[C@H](N)[C@@H]2O)C[C@@H]2O[C@](O)(C[C@@H](O)C[C@H]3O[C@@H]3/C=C/C(=O)O1)C[C@H](O)[C@H]2C(=O)O [NATAMYCIN] | 6.25 (≈ 9.39 µM) | 6.25 (≈ 9.39 µM) |  |  |  |  | 
4 | CCCCCCCCCN1CCCc2cc(OCC(=O)OCC)ccc21 | > 50 | > 50 | > 50 | > 50 | > 50 | > 50 | > 200
5 | CCCCCCCCCN1CCCc2cc(O)ccc21 | 50 (≈ 182 µM) | 50 (≈ 182 µM) | 12.5 (≈ 45.4 µM) | 12.5 (≈ 45.4 µM) | 12.5 (≈ 45.4 µM) | > 50 | > 200
6 | N=C(N)NCCCCOc1ccc2c(c1)CCCN2CCCC(F)(F)F | > 50 | > 50 | 6.25 (≈ 16.8 µM) | 6.25 (≈ 16.8 µM) | 6.25 (≈ 16.8 µM) | 25 (≈ 67.1 µM) | > 200
7 | CCCCCCCN1CCCc2cc(OCCCCCCCCBr)ccc21 | > 50 | > 50 | > 50 | > 50 | > 50 | > 50 | > 200
8 | CC(C)=CCN1CCCc2cc(OCCCCN(C)C)ccc21 | > 50 | > 50 | 25 (≈ 79 µM) | 25 (≈ 79 µM) | 25 (≈ 79 µM) | 25 (≈ 79 µM) | > 200
9 | CCCCCN1CCCc2cc(O)ccc21 | > 50 | > 50 | 50 (≈ 228 µM) | 25 (≈ 114 µM) | 25 (≈ 114 µM) | > 50 | > 200
10 | CC(C)=CCN1CCCc2cc(OCCCCCCBr)ccc21 | 50 (≈ 131 µM) | 50 (≈ 131 µM) | 50 (≈ 131 µM) | 25 (≈ 65.7 µM) | 25 (≈ 65.7 µM) | > 50 | > 200
11 | CC(C)=CCC/C(C)=C/CN1CCCc2cc(O)ccc21 | 50 (≈ 175 µM) | 25 (≈ 87.6 µM) | 12.5 (≈ 43.8 µM) | 12.5 (≈ 43.8 µM) | 12.5 (≈ 43.8 µM) | > 50 | > 200
12 | CCCCCNCCCCOc1ccc2c(c1)CCCN2CC=C(C)C | > 50 | > 50 | 6.25 (≈ 17.4 µM) | 6.25 (≈ 17.4 µM) | 6.25 (≈ 17.4 µM) | 50 (≈ 139 µM) | 146
13 | CCCCCCCCCN1CCCc2cc(OCCCCBr)ccc21 | 50 (≈ 122 µM) | 50 (≈ 122 µM) | 6.25 (≈ 15.2 µM) | 12.5 (≈ 30.5 µM) | 12.5 (≈ 30.5 µM) | 25 (≈ 60.9 µM) | > 200
14 | CC(C)=CCN1CCCc2cc(OCCCNC(=N)N)ccc21 | > 50 | > 50 | 6.25 (≈ 19.8 µM) | 6.25 (≈ 19.8 µM) | 6.25 (≈ 19.8 µM) | 50 (≈ 158 µM) | > 200
15 | CC(C)=CCN1CCCc2cc(O)ccc21 | > 50 | > 50 | 50 (≈ 230 µM) | 50 (≈ 230 µM) | 50 (≈ 230 µM) | > 50 | > 200
16 | CCCCCN1CCCc2cc(OCC(=O)N[C@@H](CCCNC(=N)N)C(=O)OC)ccc21 | > 50 | > 50 | 50 (≈ 112 µM) | 25 (≈ 55.9 µM) | 25 (≈ 55.9 µM) | > 50 | > 200
17 | CNCCCCOc1ccc2c(c1)CCCN2CC=C(C)C | 50 (≈ 165 µM) | 50 (≈ 165 µM) | 25 (≈ 82.7 µM) | 6.25 (≈ 20.7 µM) | 12.5 (≈ 41.3 µM) | 25 (≈ 82.7 µM) | > 200
18 | Oc1ccc2c(c1)CCCN2CCCC(F)(F)F | > 50 | > 50 | > 50 | > 50 | > 50 | > 50 | > 200
19 | CCCCCCCN1CCCc2cc(OCC(=O)OCC)ccc21 | > 50 | > 50 | > 50 | > 50 | > 50 | > 50 | > 200
20 | CCCCCN1CCCc2cc(OCCCCBr)ccc21 | 50 (≈ 141 µM) | 50 (≈ 141 µM) | 25 (≈ 70.6 µM) | 25 (≈ 70.6 µM) | 25 (≈ 70.6 µM) | > 50 | > 200
21 | CCCCCCCN1CCCc2cc(OCCCCBr)ccc21 | 25 (≈ 65.4 µM) | 12.5 (≈ 32.7 µM) | 12.5 (≈ 32.7 µM) | 6.25 (≈ 16.3 µM) | 6.25 (≈ 16.3 µM) | 25 (≈ 65.4 µM) | > 200
22 | CC(C)=CCN1CCCc2cc(OCCCCN3CCSCC3)ccc21 | > 50 | > 50 | > 50 | > 50 | > 50 | > 50 | > 200
23 | CCCCCCCCCN1CCCc2cc(OCCCCCCCCBr)ccc21 | > 50 | > 50 | 25 (≈ 53.6 µM) | 25 (≈ 53.6 µM) | 50 (≈ 107 µM) | > 50 | > 200
